Source: EP4620955A1, “MC4R ANTAGONIST COMPOUND, PHARMACEUTICAL COMPOSITION AND PHARMACEUTICAL USE THEREOF” (Changchun Genescience Pharmaceutical Co., Ltd., priority 2022, dated 2024)
Where two headings read alike, the source gives them in different places.

Assays:
MC4R = target: T1, MC4R (Homo sapiens, UniProt P32245); assay: Assay of MC4R antagonist activity in cells in vitro (cAMP assay, Melanotan I stimulation); format: cell-based; settings: flipin-293-MC4 cell line, Melanotan I as agonist
T1 construct: expressed in transfected cells; host or cells: flipin-293-MC4 (Flp-In 293 host, hygromycin selection)
T1 sequence (P32245 whole entry): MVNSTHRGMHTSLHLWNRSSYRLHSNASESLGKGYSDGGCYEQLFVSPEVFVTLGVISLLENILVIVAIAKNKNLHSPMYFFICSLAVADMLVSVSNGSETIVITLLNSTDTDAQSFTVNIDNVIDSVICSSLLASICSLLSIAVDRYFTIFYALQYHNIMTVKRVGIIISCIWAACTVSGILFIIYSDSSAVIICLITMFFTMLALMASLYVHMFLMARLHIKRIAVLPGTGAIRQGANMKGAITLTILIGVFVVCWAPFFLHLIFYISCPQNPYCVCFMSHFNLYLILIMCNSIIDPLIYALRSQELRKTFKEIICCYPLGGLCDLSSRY
Procedure: Test Example 1: Assay of MC4R antagonist activity in cells in vitro
a. Experimental consumables:
b. Experimental steps • ✔ Cell line: flipin-293-MC4 • ✔ Cell culture medium: DMEM, 10% fetal bovine serum, 1 × PS, 200 µg/mL hygromycin • ✔ Experimental buffer: HBSS, 20 mM HEPES, 0.1% BSA, 500 µM IBMX • ✔ Positive compound: ML00253764 c. Antagonist detection • 1. Digested cells were suspended in the experimental buffer, and then inoculated into the 384-well cell culture plate. • 2. The to-be-detected compound was added to the cell plate, and incubated at 37°C for 10 min. • 3. Melanotan I was added to the cell plate, and incubated at 37°C for 30 min. • 4. Two detection reagents EU cAMP tracer and ulight anti camp were thawed and diluted with a lysis solution in the kit. • 5. The diluted detection reagents were added to the cell plate and incubated at room temperature for 1 h. • 6. Reading was carried out by Envision. (Excitation light: 340 nm, emission light: 615 nm and 665 nm) d. Data analysis • 1. %Inhibition calculation: %Inhibition = (Signalcmpd−SignalAve_VC)/(SignalAve_PC−SignalAve_VC) × 100. [formula] • Signalcmpd: compound signal value; • SignalAve_VC: negative control signal value; • SignalAve_PC: positive control signal value; • %inhibition: inhibition percentage. • 2. Calculation of IC50 of the compound using the nonlinear fitting equation in GraphPad: Y = Bottom + (Top−Bottom)/(1+10^(∧)((LogIC50−X)×HillSlope)) [formula] X: logarithmic value of the concentration of the compound; Y: inhibition percentage

CYP 3A4M = target: T2, CYP 3A4M (Homo sapiens, UniProt P08684); assay: Inhibition of P450 enzyme (CYP 3A4, midazolam as substrate) in human liver microsomes; format: in vitro ADME
T2 construct: from tissue; host or cells: human liver microsomes (HLM)
T2 sequence (P08684 whole entry): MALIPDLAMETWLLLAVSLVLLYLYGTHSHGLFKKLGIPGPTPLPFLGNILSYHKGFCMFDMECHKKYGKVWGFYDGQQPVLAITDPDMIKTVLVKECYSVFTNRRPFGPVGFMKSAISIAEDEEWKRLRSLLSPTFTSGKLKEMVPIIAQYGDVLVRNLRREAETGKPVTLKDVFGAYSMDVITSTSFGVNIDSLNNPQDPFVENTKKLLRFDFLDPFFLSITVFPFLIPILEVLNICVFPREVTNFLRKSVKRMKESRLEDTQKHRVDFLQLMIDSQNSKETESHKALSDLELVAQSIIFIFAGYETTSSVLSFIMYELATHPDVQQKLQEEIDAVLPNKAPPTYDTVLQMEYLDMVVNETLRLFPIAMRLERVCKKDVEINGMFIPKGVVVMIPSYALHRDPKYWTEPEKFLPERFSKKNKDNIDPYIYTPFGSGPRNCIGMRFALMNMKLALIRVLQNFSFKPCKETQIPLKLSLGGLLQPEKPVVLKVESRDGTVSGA
Procedure: The inhibitory effect of the tested compound on 3A4-M (with midazolam as a substrate) in human liver microsomes is evaluated in vitro to assess the safety of the compound.
In this study, the inhibition of CYP 3A4 enzyme in human liver microsomes by the tested compound was investigated using the human liver microsomal system and the cytochrome P450 enzyme probe substrate recommended by the FDA Guidance for In Vitro Drug Interaction Studies. The human liver microsomes were incubated separately with the tested compound of different concentrations (0 µM to 30.0 µM) and corresponding probe substrates. Then, the changes of activity of the CYP enzyme were determined, and the IC50 value was calculated, to evaluate the inhibitory potential of the tested compound on the CYP 3A4 enzyme.
Test group (TG): The human liver microsomes were incubated separately with the tested compound of different concentrations, NADPH (in a final concentration of 2.00 mM), and probe substrates (Table 4) of different enzymes in subfamilies for 5 min.
Positive control group (PC): The human liver microsomes were incubated separately with an inhibitor (Table 4), NADPH (in a final concentration of 2.00 mM), and a probe substrate (Table 4) of 3A4M for 5 min. Table 4 Probe substrate of each enzyme in the subfamily, inhibitor, and incubation system
At the end of the incubation, the reaction was terminated with a stop solution.
8 µL of 30 mM test sample was transferred to 12 µL of DMSO to give a 12 mM test sample intermediate solution, and then diluted with DMSO to give test sample working solutions in different concentrations (12 mM, 4 mM, 1.33 mM, 0.433 mM, 0.147 mM, 0.049 mM, and 0.0164 mM).
To 12 µL of DMSO was added 8 µL of 2.5 mM CYP3A4 inhibitor ketoconazole stock solution to give a 1 mM positive control inhibitor working solution.
(§1) 199 µL of 0.2 mg/mL HLM and 1 µL of test sample working solution (12 mM, 4 mM, 1.33 mM, 0.433 mM, 0.147 mM, 0.049 mM, and 0.0164 mM) were mixed uniformly. 30 µL of this liver microsome solution was added to a 96-well plate, and then 10 µL of substrate working solution (320 µM testosterone or 20 µM midazolam) was added. This preparation process was carried out in duplicate. After pre-incubation at 37°C for 5 min, 15 µL of 8 mM NADPH solution pre-warmed at 37°C for 5-10 min was added to initiate the reaction. After incubation in the 96-well plate at 37°C for 5 min, 180 µL of acetonitrile/methanol (ACN:MeOH = 1:1) solution containing the internal standard (IS) was added to terminate the reaction. The 96-well plate was shaken at 600 rpm for 5-10 min, and then centrifuged at 6000 rpm for 15 min. 80 µL of supernatant was taken and added to 120 µL of ultrapure water, shaken uniformly, and then detected by LC-MS/MS.
as §1, with “1 mM positive control inhibitor (ketoconazole)” for “test sample”, “solution” for “solution (12 mM, 4 mM, 1.33 mM, 0.433 mM, 0.147 mM, 0.049 mM, and 0.0164 mM)”, “(20” for “(320 µM testosterone or 20”, “ACN:MeOH (1:1)” for “acetonitrile/methanol (ACN:MeOH = 1:1)”, “IS” for “the internal standard (IS)”, “LC-MS/MS. […]” for “LC-MS/MS.”

[1] = Pharmacokinetic study on the tested compound in SD male rats; format: in vivo; settings: IV 1 mpk/PO 2 mpk; for AUC / Cmax / clearance / half-life: Sprague-Dawley (SD), rat, plasma
Procedure: On the day of administration, the tested compound was prepared with 5% DMSO + 5% Solutol + 90% Saline as a solvent into a solution for administration for use.
The solution for administration was administered to an intravenous injection IV group at a dose of 1 mg/kg in a concentration of 0.2 mg/mL. The solution for administration was administered to an oral gavage PO group at a dose of 2 mg/kg in a concentration of 0.2 mg/mL. The animals in the PO group were required to fast overnight in advance, drink water freely, and be fed 4 hours after administration. The IV group was not required to fast.
The animals were weighed before administration. On the day of administration, the solution was IV/PO-administered once in an administration amount calculated based on the weight. In the IV group, blood was collected from veins at 0.083 h, 0.25 h, 0.5 h, 1.0 h, 2.0 h, 4.0 h, 8.0 h, and 24 h after administration. In the PO group, blood was collected from veins at 0.25 h, 0.5 h, 1.0 h, 2.0 h, 4.0 h, 6.0 h, 8.0 h, and 24 h after administration. The amount of blood collected was about 0.20 mL. K2-EDTA was used in blood collection tubes as an anticoagulant. The collected blood sample was centrifuged (centrifugation conditions: 6800 g, 6 min, 2°C to 8°C) within 1 h to obtain plasma. The to-be-tested sample was stored in a refrigerator at -80°C before analysis.
The concentration of the tested compound in the plasma of the SD male rats was detected by the validated LC-MS/MS method.

[2] = human liver microsomes 0.100 mg/mL, midazolam 5.00 µM as substrate, 5 min incubation, read-out: CYP 3A4M IC50

| IC50 (MC4R) [nM] | IC50 (CYP 3A4M; [2]) [µM] | F [1] [%] | AUC [1] [ng·h/mL] | Cmax [1] [ng/mL] | clearance [1] [mL/min/kg] | half-life [1] [min] | SMILES | IC50 (CYP 3A4M) [µM] |
| --- | --- | --- | --- | --- | --- | --- | --- | --- |
| 0.98 | 3.75 |  |  |  |  |  | COc1cc([C@@H](C)C(=O)N2CC[C@H](Nc3ccc(-c4ncccn4)c(C)n3)C2)c(Br)cn1 [Compound 200, (R)-2-(5-bromo-2-methoxypyridine-4-yl)-1-((S)-3-((6-methyl-5-(pyrimidine-2-yl)pyridine-2-yl)amino)pyrrolidine-1-yl)propan-1-one] |  |
| 3.4 | 2.94 |  |  |  |  |  | COc1cc([C@@H](C)C(=O)N2CC[C@H](Nc3ccc(-c4nccc(C#N)n4)c(C)n3)C2)c(F)cn1 [Compound 111, 2-(6-(((S)-1-((R)-2-(5-fluoro-2-methoxypyridine-4-yl)propionyl)pyrrolidine-3-yl)amino)-2-methylpyridine-3-yl)pyrimidine-4-nitrile] |  |
| 1.82 | 5.8 | 31.3 | 240 | 156 | 43.7 | 39 | COc1cc([C@@H](C)C(=O)N2CC[C@H](Nc3ccc(-c4ncccn4)c(C)n3)C2)c(Cl)cn1 [Compound 083-1, (R)-2-(5-chloro-2-methoxypyridine-4-yl)-1-((S)-3-((6-methyl-5-(pyrimidine-2-yl)pyridine-2-yl)amino)pyrrolidine-1-yl)propane-1-one] |  |
| 2.96 |  | 52.7 | 317 | 329 | 55.2 | 15 | COc1cc([C@@H](C)C(=O)N2C[C@H](C)[C@H](Nc3ccc(-c4ncccn4)c(C)n3)C2)c(F)cn1 [Compound 051-1, (R)-2-(5-fluoro-2-methoxypyridine-4-yl)-1-((3 S,4S)-3-methyl-4-(6-methyl-5-(pyrimidine-2-yl)pyridine-2-yl-amino)pyrrolidine-1-yl)propane-1-one] |  |

| SMILES | IC50 (MC4R) [nM] | IC50 (CYP 3A4M; [2]) [µM] | F [1] [%] | AUC [1] [ng·h/mL] | Cmax [1] [ng/mL] | clearance [1] [mL/min/kg] | half-life [1] [min] | IC50 (CYP 3A4M) [µM] |
| --- | --- | --- | --- | --- | --- | --- | --- | --- |
| COc1cc([C@@H](C)C(=O)N2C[C@@H](Nc3ccc(-c4ncccn4)c(C)n3)C3(CC3)C2)c(Br)cn1 [Compound 201, (R)-2-(5-bromo-2-methoxypyridine-4-yl)-1-((S)-7-((6-methyl-5-(pyrimidine-2-yl)pyridine-2-yl)amino)-5-azaspiro[2.4]hept-5-yl)propan-1-one] | 1.41 |  |  |  |  |  |  | > 30 |
| COc1cc([C@@H](C)C(=O)N2C[C@@H](Nc3ccc(-c4ncccn4)c(C)n3)C3(CC3)C2)c(Cl)cn1 [Compound 114, (R)-2-(5-chloro-2-methoxypyridine-4-yl)-1-((S)-7-((6-methyl-5-(pyrimidine-2-yl)pyridine-2-yl)amino)-5-azaspiro[2.4]heptane-5-yl)propan-1-one] | 2.45 | 29.5 | 54.0 | 450 | 197 | 39.9 | 58.8 |  |
| COc1cc([C@@H](C)C(=O)N2C[C@@H](Nc3ccc(-c4nccc(C#N)n4)c(C)n3)C3(CC3)C2)c(F)cn1 [Compound 116, 2-(6-(((S)-5-((R)-2-(5-fluoro-2-methoxypyridine-4-yl)propionyl)-5-azaspiro[2.4]heptane-7-yl)amino)-2-methylpyridine-3-yl)pyrimidine-4-nitrile] | 2.15 | > 30 |  |  |  |  |  |  |
